From ChEMBL document CHEMBL4842361, “Design, synthesis and biological activities of benzo[d]imidazo[1,2-a]imidazole derivatives as TRPM2-specfic inhibitors” (Eur J Med Chem, 2021)
Activity calls are given as the source filed them. The rule behind the calls is not given here.

Columns and labels:
[1] = target: T1, Transient receptor potential cation channel subfamily M member 2 (Homo sapiens, UniProt O94759); experiment: Inhibition of human TRPM2 expressed in HEK293T cells cotransfected with GFP assessed as reduction in ADPR-induced current at 10 uM by whole cell patch-clamp method relative to control; type: cell-based
[2] = target: T1, Transient receptor potential cation channel subfamily M member 2; experiment: Inhibition of human TRPM2 expressed in HEK293T cells cotransfected with GFP assessed as reduction in ADPR-induced current at 30 uM by whole cell patch-clamp method relative to control; type: cell-based
[3] = target: T1, Transient receptor potential cation channel subfamily M member 2; experiment: Inhibition of human TRPM2 expressed in HEK293T cells cotransfected with GFP assessed as reduction in ADPR-induced current by whole cell patch-clamp method; type: cell-based
[4] = target: Transient receptor potential cation channel subfamily M member 8 (Rattus norvegicus) (UniProt Q8R455); experiment: Inhibition of rat TRPM8 expressed in HEK293T cells cotransfected with GFP assessed as inhibition of […]-induced current at 30 uM by whole cell patch-clamp method relative to control; type: cell-based
[5] = target: Transient receptor potential cation channel subfamily V member 1 (Homo sapiens) (UniProt Q8NER1); experiment: Inhibition of TRPV1 (unknown origin) assessed as inhibition of capsaicin-induced current at 30 uM by whole cell patch-clamp method relative to control
SH-SY5Y [6] = experiment: Neuroprotection against H202-induced cell death in human SH-SY5Y cells assessed as increase in cell viability at 100 uM after 24 hrs by CCK8 assay; type: functional, cell-based
SH-SY5Y [7] = experiment: Neuroprotection against H202-induced cell death in TRPM2 knockdown human SH-SY5Y cells assessed as increase in cell viability at 100 uM after 24 hrs by CCK8 assay; type: functional, cell-based
SH-SY5Y [8] = experiment: Cytotoxicity against human SH-SY5Y cells at 30 uM measured after 24 hrs by CCK-8 assay; type: cell-based

T1 sequence (O94759 whole entry): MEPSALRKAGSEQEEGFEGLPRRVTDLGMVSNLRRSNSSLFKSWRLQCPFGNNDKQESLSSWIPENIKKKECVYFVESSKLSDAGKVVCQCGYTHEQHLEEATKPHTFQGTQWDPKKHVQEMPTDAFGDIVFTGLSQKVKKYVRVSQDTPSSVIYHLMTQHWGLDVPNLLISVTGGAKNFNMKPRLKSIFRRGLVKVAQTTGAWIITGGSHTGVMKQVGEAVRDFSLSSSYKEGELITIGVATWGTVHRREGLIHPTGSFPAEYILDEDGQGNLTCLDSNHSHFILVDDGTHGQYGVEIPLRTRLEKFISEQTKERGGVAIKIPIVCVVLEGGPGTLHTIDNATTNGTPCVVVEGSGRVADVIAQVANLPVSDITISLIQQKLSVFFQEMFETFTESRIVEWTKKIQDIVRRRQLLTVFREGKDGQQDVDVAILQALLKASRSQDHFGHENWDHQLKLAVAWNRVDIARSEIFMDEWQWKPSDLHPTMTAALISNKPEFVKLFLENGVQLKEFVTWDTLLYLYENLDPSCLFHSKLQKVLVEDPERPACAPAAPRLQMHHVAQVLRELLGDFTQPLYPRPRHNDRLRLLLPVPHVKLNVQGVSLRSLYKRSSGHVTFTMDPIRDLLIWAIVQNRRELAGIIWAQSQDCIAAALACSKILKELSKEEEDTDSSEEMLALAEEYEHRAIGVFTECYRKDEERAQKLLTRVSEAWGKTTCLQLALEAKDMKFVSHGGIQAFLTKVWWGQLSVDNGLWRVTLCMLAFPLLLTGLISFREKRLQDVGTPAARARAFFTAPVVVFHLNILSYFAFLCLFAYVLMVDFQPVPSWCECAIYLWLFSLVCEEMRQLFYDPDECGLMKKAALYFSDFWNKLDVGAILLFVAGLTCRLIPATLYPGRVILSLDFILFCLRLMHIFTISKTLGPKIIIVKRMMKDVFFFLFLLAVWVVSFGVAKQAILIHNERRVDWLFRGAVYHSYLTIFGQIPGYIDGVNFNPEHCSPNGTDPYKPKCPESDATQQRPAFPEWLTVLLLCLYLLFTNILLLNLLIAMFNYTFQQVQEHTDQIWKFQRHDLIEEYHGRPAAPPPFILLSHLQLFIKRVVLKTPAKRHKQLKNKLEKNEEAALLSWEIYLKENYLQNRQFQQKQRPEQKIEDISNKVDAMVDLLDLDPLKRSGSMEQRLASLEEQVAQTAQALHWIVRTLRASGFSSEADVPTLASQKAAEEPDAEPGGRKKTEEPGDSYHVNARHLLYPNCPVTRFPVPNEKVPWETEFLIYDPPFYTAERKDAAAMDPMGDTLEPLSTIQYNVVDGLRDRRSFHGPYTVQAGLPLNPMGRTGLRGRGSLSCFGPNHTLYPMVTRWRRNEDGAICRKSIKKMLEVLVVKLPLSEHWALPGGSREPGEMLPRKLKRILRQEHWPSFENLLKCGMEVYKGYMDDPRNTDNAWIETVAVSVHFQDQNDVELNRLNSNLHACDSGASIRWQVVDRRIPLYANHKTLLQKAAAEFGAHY
Transient receptor potential cation channel subfamily V member 1 (Homo sapiens), sequence (Q8NER1 whole entry): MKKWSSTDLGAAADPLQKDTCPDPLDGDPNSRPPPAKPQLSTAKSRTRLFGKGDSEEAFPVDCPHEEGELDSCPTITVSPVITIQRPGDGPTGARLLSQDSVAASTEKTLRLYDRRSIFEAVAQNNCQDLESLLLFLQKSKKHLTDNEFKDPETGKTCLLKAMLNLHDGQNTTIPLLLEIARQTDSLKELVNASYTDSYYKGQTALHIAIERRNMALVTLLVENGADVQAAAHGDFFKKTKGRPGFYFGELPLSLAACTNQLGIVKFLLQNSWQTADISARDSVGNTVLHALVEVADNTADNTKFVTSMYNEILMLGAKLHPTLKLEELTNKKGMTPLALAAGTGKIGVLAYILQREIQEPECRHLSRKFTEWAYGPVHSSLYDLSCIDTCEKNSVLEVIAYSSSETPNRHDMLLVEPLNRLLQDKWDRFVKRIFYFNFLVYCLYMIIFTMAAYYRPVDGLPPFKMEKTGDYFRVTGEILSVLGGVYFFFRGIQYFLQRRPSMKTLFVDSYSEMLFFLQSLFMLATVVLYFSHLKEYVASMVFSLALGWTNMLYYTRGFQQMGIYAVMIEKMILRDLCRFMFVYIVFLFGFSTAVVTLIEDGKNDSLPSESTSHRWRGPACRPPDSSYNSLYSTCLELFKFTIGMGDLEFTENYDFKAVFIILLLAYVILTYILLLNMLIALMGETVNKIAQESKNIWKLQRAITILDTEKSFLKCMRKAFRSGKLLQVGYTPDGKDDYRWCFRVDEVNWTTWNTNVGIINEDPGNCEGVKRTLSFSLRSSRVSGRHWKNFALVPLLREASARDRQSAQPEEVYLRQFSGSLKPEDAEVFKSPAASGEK
Transient receptor potential cation channel subfamily M member 8 (Rattus norvegicus), sequence (Q8R455 whole entry, looked up): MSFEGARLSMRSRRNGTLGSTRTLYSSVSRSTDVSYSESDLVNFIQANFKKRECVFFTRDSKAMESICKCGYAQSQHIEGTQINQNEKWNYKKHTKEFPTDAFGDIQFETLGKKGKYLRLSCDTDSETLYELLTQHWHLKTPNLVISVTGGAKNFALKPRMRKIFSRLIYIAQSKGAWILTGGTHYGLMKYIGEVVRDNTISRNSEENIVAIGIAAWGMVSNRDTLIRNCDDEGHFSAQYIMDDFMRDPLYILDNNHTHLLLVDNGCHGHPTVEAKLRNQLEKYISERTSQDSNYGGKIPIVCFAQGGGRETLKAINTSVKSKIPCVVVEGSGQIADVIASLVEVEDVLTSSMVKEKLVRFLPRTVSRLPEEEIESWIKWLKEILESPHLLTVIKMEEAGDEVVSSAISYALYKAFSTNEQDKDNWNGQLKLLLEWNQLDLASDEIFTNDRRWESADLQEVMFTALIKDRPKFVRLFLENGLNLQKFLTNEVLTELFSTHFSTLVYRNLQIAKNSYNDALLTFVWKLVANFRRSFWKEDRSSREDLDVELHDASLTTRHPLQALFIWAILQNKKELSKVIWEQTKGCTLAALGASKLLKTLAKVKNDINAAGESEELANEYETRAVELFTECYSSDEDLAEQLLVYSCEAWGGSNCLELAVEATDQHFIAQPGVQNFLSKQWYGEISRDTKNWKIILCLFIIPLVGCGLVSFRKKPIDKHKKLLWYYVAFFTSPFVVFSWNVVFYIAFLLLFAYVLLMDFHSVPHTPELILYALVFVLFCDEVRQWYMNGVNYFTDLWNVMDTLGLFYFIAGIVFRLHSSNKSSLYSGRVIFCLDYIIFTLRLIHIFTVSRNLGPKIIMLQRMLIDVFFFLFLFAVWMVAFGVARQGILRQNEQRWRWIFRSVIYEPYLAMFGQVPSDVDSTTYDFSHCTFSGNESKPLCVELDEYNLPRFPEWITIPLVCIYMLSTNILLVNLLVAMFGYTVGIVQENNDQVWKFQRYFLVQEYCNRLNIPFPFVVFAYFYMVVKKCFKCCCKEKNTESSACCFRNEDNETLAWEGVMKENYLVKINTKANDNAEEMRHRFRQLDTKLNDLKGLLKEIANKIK

Row | inhibition [1] | inhibition [2] | IC50 [3] | inhibition [4] | inhibition [5] | Structure (SMILES) | Activity (SH-SY5Y [6]) | Activity (SH-SY5Y [7]) | Activity (SH-SY5Y [8])
1 | 50% |  |  |  |  | CCN(CC)CCn1c2ccccc2n2c(C(C)=O)c(C)nc12 |  |  | 
2 |  | 90% | 6.2 µM | 26% | 40% | CCN(CC)CCn1c2ccccc2n2c(C(=O)c3ccc(-c4ccccc4)cc3)c(C)nc12 | Active | inactive | Non-Toxic
3 |  | 90% | 8.1 µM | 36% | 22% | CCN(CC)CCn1c2ccccc2n2c(C(=O)c3cc4ccccc4o3)c(C)nc12 | Active | inactive | Non-Toxic
